Data from patent US20020055462A1, “Use” (priority 1999, published 2002).
“Also recorded” adds a separate entry of the source.

What was measured:
[1] = test system: aromatase; test: Basal aromatase activity in intact monolayers of cultured breast tissue fibroblasts; type: cell-based, human; settings: for inhibition of basal aromatase activity (in words): stromal fibroblasts from normal or malignant breast tissue; for inhibition of basal aromatase activity: fibroblasts derived from reduction mammoplasty tissue, 24 h pre-treatment then 48 h with dexamethasone 100 nmol/l
Experimental: (§1) Inhibition of basal and TNFα-stimulated aromatase activity by paclitaxel (Pax) in breast tissue fibroblasts. Paclitaxel was added to cells which were cultured for 24 h in 2% stripped foetal calf serum. TNFα was added, in the presence of dexamethasone (100 nmol/l) and cells cultured for a further 48 h in the same medium. Controls and cells with paclitaxel, but not TNFα, were also cultured in the presence of dexamethasone for a 48 h period. Aromatase activity was measured in intact monolayers after washing cells with phosphate buffered saline. (means±SD, n=3; a, p<0.001 versus controls; b, p<0.001 versus TNFα-stimulated aromatase activity).
(§2) Samples of breast adipose or tumour tissue were obtained from women undergoing reduction mammoplasty or lumpectomy after obtaining their informed consent.
(§3) Fibroblasts were cultured as previously described (2). Briefly, they were cultured in Eagles' modified minimal essential medium containing Hepes buffer (20 mmol/l), 10% foetal calf serum (FCS) and supplements. Cells were routinely passaged 2-3 times after which replicate 25 cm^2 flasks were seeded with fibroblasts and grown to confluency.
(§4) At the end of the treatment period aromatase activity was measured in intact monolayers using [1β-^3H] androstenedione (15-30 Ci/mmol, NEN-Du Pont, Stevenage, Herts, UK) over a 3-20 h period (2, 3). The number of cells was measured by counting cell nuclei using a Coulter counter. Experiments were carried out in triplicate and results shown are representative of 2-3 investigations.

[2] = test system: TNFα stimulated aromatase activity; test: TNFα-stimulated aromatase activity in cultured breast tissue fibroblasts; type: cell-based, human; settings: for inhibition of TNFα-stimulated aromatase activity (in words): stromal fibroblasts from normal or malignant breast tissue; for inhibition of TNFα (20 ng/ml) stimulated aromatase activity, significance: compound 10 μM, p<0.001; for inhibition of TNFα-stimulated aromatase activity: fibroblasts derived from reduction mammoplasty tissue, 24 h pre-treatment, then TNFα plus dexamethasone for 48 h
Experimental: as §1, §2, §3, §4

[3] = test system: IL-6 plus IL-6sR stimulated aromatase activity; test: IL-6 plus IL-6sR stimulated aromatase activity in breast fibroblasts; type: cell-based, human; settings: for inhibition of stimulation of aromatase activity by IL-6 plus its soluble receptor (in words): breast fibroblasts; for inhibition of IL-6 plus IL-6sR (50 ng+100 ng/ml) stimulated aromatase activity, significance: compound 10 μM, p<0.001
Experimental: (§5) The experimental protocol used was as described in the legend to FIG. 1.
as §3, §4

[4] = test system: PGE2 stimulated aromatase activity; test: PGE2 stimulated aromatase activity in breast fibroblasts; type: cell-based, human; settings: for inhibition of stimulation of aromatase activity by PGE2 (in words): breast fibroblasts; for inhibition of PGE2 (10 μM) stimulated aromatase activity, significance: compound 10 μM, p<0.001
Experimental: as §5, §3, §4

[5] = test system: B16 melanoma; settings: oral administration, mice; cited from earlier work
[6] = test system: Meth A sarcoma; settings: oral administration, mice; cited from earlier work
[7] = test system: MDA-MB-435 breast cancer cells; settings: oral administration, mice; cited from earlier work
[8] = test system: TNFα stimulated aromatase activity; settings: high concentrations, 10-100 μM; cited from earlier work
[9] = test system: TNFα receptors; settings: human macrophages; cited from earlier work

COc1cc2c(cc1OS(N)(=O)=O)CCC1C2CC[C@]2(C)C(=O)CCC12 (stereo partly drawn) [2-MeOEMATE, 2-methoxyoestrone-3-O-sulphamate]
inhibition of basal aromatase activity (in words) [1]: inhibited; also recorded: reduced
inhibition of TNFα-stimulated aromatase activity (in words) [2]: inhibited; also recorded: reduced
inhibition of stimulation of aromatase activity by IL-6 plus its soluble receptor (in words) [3]: antagonise; also recorded: inhibited
inhibition of stimulation of aromatase activity by PGE2 (in words) [4]: antagonise; also recorded: inhibited

COc1cc2c(cc1O)CC[C@@H]1[C@@H]2CC[C@]2(C)[C@@H](O)CC[C@@H]12 [2-meOE2, 2-methoxyoestradiol]
inhibition of basal aromatase activity [1]: 46%
inhibition of basal aromatase activity (in words) [1]: inhibited
inhibition of TNFα (20 ng/ml) stimulated aromatase activity, significance [2]: significant
inhibition of TNFα stimulation of aromatase activity, dose-response study ([2]; compound at 0.1 μM): 51%
inhibition of TNFα-stimulated aromatase activity [2]: 56%
inhibition of TNFα-stimulated aromatase activity (in words) [2]: inhibited
inhibition of TNFα-stimulated aromatase activity (in words) ([2]; listed as 2-methoxyoestradiol): significantly inhibited
inhibition of IL-6 plus IL-6sR (50 ng+100 ng/ml) stimulated aromatase activity, significance [3]: significant
inhibition of stimulation of aromatase activity by PGE2 (in words) [4]: antagonise; also recorded: inhibited
inhibition of PGE2 (10 μM) stimulated aromatase activity, significance [4]: significant
tumour growth [5]: significantly reduced
tumour growth [6]: significantly reduced
tumour growth [7]: significantly reduced

COc1cc2c(cc1O)CC[C@@H]1[C@@H]2CC[C@]2(C)[C@@H](O)[C@H](O)C[C@@H]12 [2-meOE3, 2-methoxyoestriol]
inhibition of TNFα stimulation of aromatase activity at 5 μM (in words) ([2]; compound at 5 μM): did not significantly reduce
inhibition of TNFα stimulation of aromatase activity at highest concentration tested (in words) ([2]; highest concentration tested): some inhibitory effect
inhibition of TNFα-stimulated aromatase activity (in words) [2]: less effective
inhibition of TNFα-stimulated aromatase activity (in words) ([2]; listed as 16α-hydroxy derivative of 2-meOE2): limited ability to suppress

COc1cc2c(c(OC)c1OC)-c1ccc(OC)c(=O)cc1[C@@H](NC(C)=O)CC2 [Colchicine]
inhibition of TNFα-stimulated aromatase activity (in words) [2]: without effect
inhibition of TNFα-stimulated aromatase activity (in words) ([2]; listed as colchicine): unable to inhibit

C=C1[C@@H](C)[C@H]2[C@H](Cc3ccccc3)NC(=O)[C@]23OC(=O)/C=C/[C@H](O)CCC[C@@H](C)C/C=C/[C@H]3[C@@H]1O [Cytocholasin B]
inhibition of TNFα-stimulated aromatase activity (in words) [2]: without effect
inhibition of TNFα-stimulated aromatase activity (in words) ([2]; listed as cytocholasin B): unable to inhibit

C[C@]12CC[C@@H]3c4ccc(O)cc4CC[C@H]3[C@@H]1CC[C@@H]2O [oestradiol]
inhibition of TNFα stimulated aromatase activity in adipose stromal cells [8]: can inhibit

CC(=O)O[C@H]1C(=O)[C@@]2(C)[C@H]([C@H](OC(=O)c3ccccc3)[C@]3(O)C[C@H](OC(=O)[C@H](O)[C@@H](NC(=O)c4ccccc4)c4ccccc4)C(C)=C1C3(C)C)[C@]1(OC(C)=O)CO[C@@H]1C[C@@H]2O [paclitaxel]
inhibition of basal aromatase activity [1]: 88%
inhibition of basal aromatase activity (in words) [1]: inhibited
inhibition at 0.1 µM ([2]; Homo sapiens, Fibroblast, compound at 0.1 μM, read-out: inhibition of TNFα stimulation of aromatase activity, dose-response study): 90%
inhibition of TNFα (20 ng/ml) stimulated aromatase activity, significance [2]: significant
inhibition of TNFα-stimulated aromatase activity [2]: 91%
inhibition of TNFα-stimulated aromatase activity (in words) [2]: significantly inhibited
inhibition of TNFα-stimulated aromatase activity (in words) ([2]; listed as Paclitaxel): inhibited
inhibition of stimulation of aromatase activity by IL-6 plus its soluble receptor (in words) [3]: antagonise; also recorded: inhibited
inhibition of IL-6 plus IL-6sR (50 ng+100 ng/ml) stimulated aromatase activity, significance [3]: significant
inhibition of stimulation of aromatase activity by PGE2 (in words) [4]: antagonise; also recorded: inhibited
inhibition of PGE2 (10 μM) stimulated aromatase activity, significance [4]: significant
effect on TNFα receptors [9]: rapidly down-regulate

TNFα
stimulation of aromatase activity ([2]; in the presence of dexamethasone, reduction mammoplasty fibroblasts): 375%
